Source: patent US9223210B2, “Photosensitive compound, photosensitive resin, and photosensitive composition” (TOYO GOSEI CO., LTD., priority 2012, dated 2015)

What was measured:
[1] = Solubility in aqueous phosphoric acid solution (Test Example 1); type: physicochemical; details: for Solubility in aq. phosphoric acid solution (104 g): liquid temperature 20° C., amount dissolved (complete dissolution where stated); for Solubility in aqueous phosphoric acid solution (in words): summary of Table 1
Method: (§1) Solubility of each of the photosensitive compounds produced in Comparative Synthesis Examples 1 to 2 and Examples 2 to 5 (comparative photosensitive materials H and I, and photosensitive materials C to F) in 100 g of neutral water (water temperature: 20° C.) was assessed. The solubility in an aqueous phosphoric acid solution (liquid temperature: 20° C.) obtained by mixing phosphoric acid (4 g) and water (100 g), was also determined.

[2] = Solubility in neutral water (Test Example 1); type: physicochemical; details: 100 g of neutral water, water temperature 20° C.
Method: as §1

[3] = phosphoric acid (4 g) and water (100 g)

Row | Compound | Solubility in aq. phosphoric acid solution (104 g) [1, 3] | Solubility in water (100 g) [2] | Solubility in aq. phosphoric acid solution (104 g), partial dissolution ([1]; phosphoric acid (4 g) and water (100 g), 20° C., amount giving only partial dissolution) | Solubility in aqueous phosphoric acid solution (in words) [1]
1 | 3-(4-azidophenyl)-N-(4,4′-dimethoxybutyl)-2-(4-imidazolylmethylphenyl)carbonylamino-prop-2-enamide [Photosensitive material D] | 5 g (complete | ≦0.1 g | – | –
2 | COC(CCCNC(=O)C(=Cc1ccc(N=[N+]=[N-])cc1)NC(=O)c1ccccc1)OC [Comp. Photosensitive material H, 3-(4-azidophenyl)-N-(4,4′-dimethoxybutyl)-2-phenylcarbonylamino-prop-2-enamide] | ≦0.1 g | ≦0.1 g | – | very low solubility
3 | COC(CCCNC(=O)C(=Cc1cccnc1)NC(=O)C=Cc1ccc(N=[N+]=[N-])cc1)OC [Comp. Photosensitive material I, 2-(3-(4-azidophenyl)prop-2-enoylamino)-N-(4,4-dimethoxybutyl)-3-(3-pyridyl)prop-2-enamide] | 0.2 g (complete | ≦0.1 g | 0.4 g (partial | lower than that of photosensitive materials C to F

More lines, main results first:

Row | Solubility in aq. phosphoric acid solution (104 g) [1, 3] | Solubility in water (100 g) [2] | Solubility in aq. phosphoric acid solution (104 g), partial dissolution ([1]; phosphoric acid (4 g) and water (100 g), 20° C., amount giving only partial dissolution) | Compound | Solubility in aqueous phosphoric acid solution (in words) [1]
4 | 5 g (complete | ≦0.1 g | – | COC(CCCNC(=O)C(=Cc1ccc(N=[N+]=[N-])cc1)NC(=O)c1ccc(CN2CCOCC2)cc1)OC [Photosensitive material C, 3-(4-azidophenyl)-N-(4,4′-dimethoxybutyl)-2-(4-morpholinomethylphenyl)carbonylamino-prop-2-enamide] | –
5 | 5 g (complete | ≦0.1 g | – | C=CCN(CC=C)Cc1ccc(C(=O)NC(=Cc2ccc(N=[N+]=[N-])cc2)C(=O)NCCCC(OC)OC)cc1 [Photosensitive material E, 3-(4-azidophenyl)-N-(4,4′-dimethoxybutyl)-2-(4-diallylaminomethylphenyl)carbonylamino-prop-2-enamide] | –
6 | 5 g (complete | ≦0.1 g | – | [N-]=[N+]=Nc1ccc(C=C(NC(=O)c2ccc(CN3CCOCC3)cc2)C(=O)NCCCC=O)cc1 [Photosensitive material F, 3-(4-azidophenyl)-N-(3-formylpropyl)-2-(4-morpholinomethylphenyl)carbonylamino-prop-2-enamide] | –
